According to patent US20230042917A1, “DIRECT REPROGRAMMING OF SOMATIC CELLS INTO MYOGENIC CELLS” (THE GENERAL HOSPITAL CORPORATION, priority 2016, published 2023):

Test system: MEFs expressing MyoD
Experiment: Reprogramming of MyoD-expressing MEFs with small molecules (myotubes, proliferative cells, contraction, Pax7 staining)
Format: cell-based, mouse
Details: for formation of MyHC+, polynucleated myotubes / generation of proliferative cells: Knockout DMEM, 10% KOSR, 10% FBS, 10 ng/ml bFGF
From the text: A doxycycline (dox) inducible lentiviral system (tetOP-MyoD) was engineered, allowing for inducible and reversible activation of MyoD in target cells. […] The myogenic identity of converted cells was confirmed by immunofluorescence staining for the differentiation marker myosin heavy chain (MyHC), which was absent in uninfected MEFs (FIG. 14C).
MEFs undergoing MyoD-induced lineage conversion were exposed to various small molecules and cytokines in an attempt to induce reprogramming into a proliferative, myogenic progenitor-like cell state in addition to mature myotubes (FIG. 14A, bottom row). Specifically, compounds including the GSK3β inhibitor CHIR99021 (abbreviated as “G”) and the TGF-01 receptor inhibitor RepSox (abbreviated as “R”) were used. In addition, the effect of the cyclic AMP agonist Forskolin (abbreviated as “F”), which reportedly facilitates the transient expansion of satellite cells in vitro was tested. These compounds were added individually or combinatorially to MEFs expressing MyoD and cultured in Knockout DMEM media containing 10% KOSR and 10% FBS and supplemented with 10 ng/ml bFGF, which promotes satellite cell and myoblast growth. […] Cultures treated with these small molecules typically assembled into three-dimensional colonies with emanating myotubes and numerous small, round cells that seem to be muscle progenitors (FIG. 14B and live video monitoring was used to monitor the muscle progenitors). KOSR media contains ascorbic acid, which enhances reprogramming into iPSCs by modulating epigenetic regulators. To determine whether ascorbic acid is required for the induction of these proliferative, putative progenitor cells using our culture system, MEFs expressing MyoD were exposed to F/R in the presence or absence of ascorbic acid using DMEM media containing FBS and bFGF but lacking KOSR.
To assess the temporal requirement for exogenous MyoD expression and small molecules during the establishment and maintenance of our progenitor-like cell population, infected MEFs were treated with dox for 0, 2, 4, 6, 8 or 10 days in the presence of F/R, followed by 5 days of dox withdrawal before scoring for colonies that proliferated and contracted (FIG. 14G). […] By contrast, continuous exposure of cultures to F/R was required to maintain these cultures upon passaging (FIG. 14G and data not shown). Thus, without being bound by any particular theory, small molecules and growth factors collaborate with transient MyoD expression to endow MEFs with a myogenic progenitor-like state. These cells are provisionally termed “induced myogenic progenitor cells” (iMPCs).
Mouse embryonic fibroblasts (MEFs), Tail-tip fibroblasts (TTFs) and the commercial myoblast cell line C2C12 (ATCC®CRL-1772™) were cultured in “MEF medium” containing DMEM (ThermoFisher Scientific, catalog number 10313-021), supplemented with 10% Fetal Bovine Serum (FBS) (HyClone catalog number SH30396.03), 1% GlutaMAX (ThermoFisher Scientific, catalog number 35050061), 1% non-essential amino acids (ThermoFisher Scientific, catalog number 11140050), 1% penicillin-streptomycin (ThermoFisher Scientific, catalog number 15140122), 0.5% β-mercaptoethanol (ThermoFisher Scientific, catalog number 21985-023). Freshly isolated satellite cells and derivative myoblasts were cultured using a 1:1 ratio of DMEM and F-10 (1×) Nutrient mix (ThermoFisher Scientific, catalog number 11550-043) supplemented with 10% horse serum (ThermoFisher Scientific, catalog number 16050-122), 20% FBS (HyClone catalog number SH30396.03) and […] basic-FGF (R&D 233-FB). Satellite cells and myoblasts were cultured on plates coated with Matrigel Basement Membrane Matrix (Catalog number 356237, Corning). […]

SMILES | formation of MyHC+, polynucleated myotubes (MEFs expressing MyoD) | generation of proliferative cells (MEFs expressing MyoD) | generation of proliferative cells and contracting myotubes (MEFs expressing MyoD exposed to F/R, DMEM with FBS and bFGF lacking KOSR) | Pax7+ iMPC formation after withdrawal of SR (MyoD + FR, medium without serum replacement) | Pax7+ cells (immunofluorescence) (MEFs expressing MyoD, in the presence of KOSR or ascorbate)
Cc1cccc(-c2n[nH]cc2-c2ccc3ncccc3n2)n1 [R, 2-3[(6-methyl-2-pyridinyl)-1H-pyrazol-4-yl]-1,5-napthyridine] | increased | did not generate any proliferative cells | – | – | –
O=C1O[C@H]([C@@H](O)CO)C(O)=C1O [ascorbic acid] | – | – | depended on ascorbic acid | partially rescues this phenotype | –
Cc1c[nH]c(-c2cnc(NCCNc3ccc(C#N)cn3)nc2-c2ccc(Cl)cc2Cl)n1 [G, CHIR99021] | increased | did not generate any proliferative cells | – | – | only in the presence of FR
